Assays:
5-HT2 receptor = test: DOI-induced head twitch model in mice; assay type: in vivo; conditions: p.o., 0.5 hr before s.c. DOI
[1] = system: P70s6 kinase (at Threonine 389); test: Phosphorylation of mTOR pathway proteins in rat PFC: P70s6 kinase; assay type: in vivo; conditions: over 24 hours after one i.p. injection; ketamine 30 mg/kg, Formula A 3 mg/kg
mTORC1 signaling pathway = mTORC1 signaling pathway in mPFC of adult rats, dose range study; assay type: in vivo, rat; conditions: Formula A 1 to 8 mg/kg i.p.; ketamine 30 mg/kg; 60 min, 90 min or 24 hours
AKT (at Threonine 308) = test: Phosphorylation of mTOR pathway proteins in rat PFC: AKT; assay type: in vivo; conditions: 1 hour and 24 hours after one i.p. injection; ketamine 30 mg/kg, Formula A 3 mg/kg
[2] = system: AMPA receptor currents in mPFC neurons; test: AMPA-induced currents in rat mPFC slices, whole-cell patch clamp; assay type: cell-based
Source text: (§1) Combined administration of the antipsychotic, olanzapine, and the SSRI, fluoxetine, similarly induces rapid antidepressant activity in humans and animals (Tohen et al., 2010); likewise, combined application of olanzapine and fluoxetine is required to induce AMPA receptor currents in vitro.

5-HT2A = 5-HT2A (Homo sapiens (Human), UniProt P28223)
mTOR (at Serine 2448) = test: Phosphorylation of mTOR pathway proteins in rat PFC: mTOR; assay type: in vivo; conditions: one i.p. injection; ketamine 30 mg/kg, Formula A 3 mg/kg
D2 = D2 (Homo sapiens (Human), UniProt P14416)
[3] = system: NMDA receptor currents in mPFC neurons; test: NMDA-induced currents in rat mPFC slices, whole-cell patch clamp; assay type: cell-based
Source text: as §1

[4] = Clinical studies in patients with acute exacerbated schizophrenia; assay type: in vivo, human; conditions: 60 mg P.O. once daily, up to 28 days
Source text: Social avoidance can be a critical and debilitating symptom in patients suffering from anxiety disorders, especially social anxiety disorder, as well as in patients suffering from traumatic anxiety disorders. Social avoidance is often one of the key determinants of whether a person with a severe anxiety disorder is capable of maintaining familial relationships or employment relationships. […] Negative symptoms of schizophrenia can be divided into two categories: emotional experience (e.g., emotional withdrawal, passive social withdrawal, active social avoidance) and emotional expression (e.g., blunted effect, poor rapport, lack of spontancity, and motor retardation). […] These are the symptoms that are most highly correlated with interpersonal functioning.

[5] = 40-minute infusion, total dose 0.5 mg/kg; after 24 hours; cited from earlier work
[6] = bath applied 3-100 nM, 5 min later

SMILES: O=C1CN2c3c(cccc3[C@@H]3CN(CCCOc4ccc(F)cc4)CC[C@@H]32)N1 [Example 1, (6bR,10aS)-8-(3-(4-fluorophenoxy)propyl)-6b,7,8,9,10,10a-hexahydro-1H-pyrido[3′,4′:4,5]pyrrolo[1,2,3-de]quinoxalin-2(3H)-one]
- EC50 for reducing DOI-induced head twitches (5-HT2 receptor): 0.44 mg/kg

SMILES: CN1CCN2c3c(cccc31)[C@@H]1CN(CCCC(=O)c3ccc(F)cc3)CC[C@@H]12 [Formula A, lumateperone]
- p70s6K phosphorylation [1]: progressively increases
- activation of mTORC1 signaling pathway in mPFC (p-Akt thr308, p-P70S6K) (mTORC1 signaling pathway): rapidly activates the mTORC1 signaling pathway
- increase in phosphorylation of AKT at thr308 (AKT (at Threonine 308)): ~50%
- AMPA-induced currents compared to control ([2]; 30 nM, alone and with SCH 23390 (1 μM)): Substantially the same results
- AMPA currents [2, 6]: enhanced
- Ki (5-HT2A): 10 nM
- change in mTOR phosphorylation (mTOR (at Serine 2448)): Neither ketamine nor the Compound of Formula A results in a change
- Ki (D2): 49 nM
- NMDA-induced currents compared to control ([3]; 30 nM): ~150%
- NMDA currents [3, 6]: enhanced
- symptoms of emotional experience compared to placebo [4]: significant and unexpected improvement

SMILES: CNCCC(Oc1ccc(C(F)(F)F)cc1)c1ccccc1 (stereo not shown) [fluoxetine]
- activity at 0.1 µM ([2]; Rattus norvegicus, Neuron, 100 nM fluoxetine, read-out: AMPA-induced current, % of control): ~90%

SMILES: CNC1(c2ccccc2Cl)CCCCC1=O (stereo not shown) [ketamine]
- p70s6K phosphorylation [1]: transiently increase
- activation of mTORC1 signaling pathway in mPFC (p-Akt thr308, p-P70S6K) (mTORC1 signaling pathway): rapidly activates the mTORC1 signaling pathway
- increase in phosphorylation of AKT at thr308 (AKT (at Threonine 308)): ~50%
- ratings on the Hamilton Depression Rating Scale (HDRS) compared to placebo [5]: significantly improved
- change in mTOR phosphorylation (mTOR (at Serine 2448)): Neither ketamine nor the Compound of Formula A results in a change

SMILES: Cc1cc2c(s1)Nc1ccccc1N=C2N1CCN(C)CC1 [olanzapine]
- activity at 0.003 µM ([2]; Rattus norvegicus, Neuron, 3 nM olanzapine alone, read-out: AMPA-induced current, % of control): ~100%
